Assay results: EP4810493A1, “HETEROCYCLIC CARBONYL DERIVATIVE MODULATOR, PREPARATION METHOD THEREFOR, AND USE THEREOF” (Shanghai Hansoh Biomedical Co., Ltd., priority 2023, dated 2025)

Molecular target: T1, M4 receptor (Homo sapiens, UniProt P08173)
T1 construct: expressed in transfected cells
T1 sequence (P08173 1-479): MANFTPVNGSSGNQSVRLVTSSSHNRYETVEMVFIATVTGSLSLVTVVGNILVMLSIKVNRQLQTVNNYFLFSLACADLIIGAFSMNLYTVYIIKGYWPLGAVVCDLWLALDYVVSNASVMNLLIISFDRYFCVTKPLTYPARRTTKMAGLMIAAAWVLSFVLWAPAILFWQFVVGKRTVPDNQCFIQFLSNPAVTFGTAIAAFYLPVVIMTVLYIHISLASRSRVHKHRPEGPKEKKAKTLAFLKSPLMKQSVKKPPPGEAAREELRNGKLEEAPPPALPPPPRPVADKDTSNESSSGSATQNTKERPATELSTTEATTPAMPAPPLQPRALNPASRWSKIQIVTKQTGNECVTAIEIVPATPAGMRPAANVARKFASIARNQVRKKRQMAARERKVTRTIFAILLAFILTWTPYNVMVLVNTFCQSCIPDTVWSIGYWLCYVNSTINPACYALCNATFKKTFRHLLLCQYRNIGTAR
Assay: Calcium flux (FLIPR) potentiation assay in cells stably expressing M4 receptor
Format: cell-based
Conditions: not given
Source text: Test example 1. Determination of the effect of the compounds of the present invention on calcium current in cells stably expressing M1-M5 receptors
To detect the potentiating effect of compounds on calcium flux activity in CHO-K1/human M1/3/5 and CHO-K1/Gα15 M2/4 cells.
384-well assay plate, 384-well plate, FLIPR Tip, FLIPR Penta plate reader, Dispendix non-contact nanoliter dispensing system (liquid handling workstation), liquid handler.
Ham's F-12 Nutrient Mix, foetal bovine serum, P/S (Gibco: 15140122), HBSS (Gibco: 14025076), HEPES (Gibco: 15630080), FLIPR calcium 6 assay kit (Molecular Devices: R8190), Probenecid (PBA) (Invitrogen: P36400), Acetylcholine chloride (Sigma: A6625-25G) Complete culture medium: DMEM + 10% FBS + 1X P/S; Cell seeding medium: DMEM + 10% FBS + 1X PS; Assay buffer 1: 1X HBSS + 20 mM HEPES +2.5 mM Probenecid; Assay buffer 2: 1X HBSS + 20 mM HEPES; Cell line: CHO-K1/M1; CHO-K1/M2/Gα15; CHO-K1/M3; CHO-K1/M4/Gα15; CHO-K1/M5.
FLIPR calcium 6 assay kit: Component A was dissolved in Assay buffer 1, and the mixture was shaken for 1-2 min, sub-packaged and stored at -20°C.
• 1) CHO-K1/M1; CHO-K1/M2/Gα15; CHO-K1/M3; CHO-K1/M4/Gα15; and CHO-K1/M5 cell lines were cultured separately in complete culture medium at 37°C, 5% CO2 to 70%-90% confluency. • 2) The cells were digested and resuspended in cell seeding medium, 5,000 cells/well/20 µL were seeded into a 384-well cell culture plate, and the cells were cultured at 37°C, 5% CO2 for 24 hours. • 3) The cell culture plate was taken out of the CO2 incubator and equilibrated at room temperature for 10 minutes. • 4) Component A solution was removed and allowed to equilibrate to room temperature. 20 µL of Component A solution was added to each well of the cell culture plate, and incubated at room temperature in the dark for 1 hour. • 5) Acetylcholine chloride (ACh), a muscarinic receptor agonist, was prepared in Assay buffer 2 at EC20/EC100 concentrations; subsequently, 30 µL of the prepared muscarinic receptor agonist was added to a 384-well agonist plate (PE: 6008590) using a Multidrop Combi; the working solutions of the positive control compound and the test compound were serially diluted at a 3.16-fold gradient and dispensed (450 nL) into a 384-well compound plate (PE: 6008590) using the Dispendix liquid handling workstation; 30 µL of Assay buffer 2 was added to the 384-well compound plate (PE: 6008590) using the Multidrop Combi; the positive control compound and the test compound were diluted to 6X, mixed by shaking, and placed at room temperature until use. • 6) 10 µL of the diluted 6X compound was added to the assay wells of the corresponding 384-well cell plate using the FLIPR Penta, followed by a 2-minute incubation. • 7) 10 µL of the prepared muscarinic receptor agonist was added to the assay wells of the corresponding 384-well cell plate using the FLIPR Penta, with simultaneous data acquisition.
FLIPR Penta was used to read and collect the fluorescence signal value (RFU). The maximum RFU value was used to calculate the percent activation data based on the readings of the Low control (DMSO control group) and High control (ACh EC100) experimental groups {% activation rate = (RFUsample - RFUlow control) / (RFUhigh control - RFUlow control)×100}. The test compound was diluted 3.16X in the reaction system to generate 11 concentration points ranging from 30 µM to […].

SMILES	EC50 [nM]
Cc1c2c(c3ncnn3c1C)CN(C(=O)CC1CN(c3ncc(F)cc3F)C1)C2 [Example 301]	12.4
Cc1c2c(c3ncnn3c1C)CN(C(=O)CC1CN(c3ccc4c(ccn4C)c3)C1)C2 [Example 309]	28.1

Same assay, conditions: CHO-K1/M4/Gα15 cells; potentiation of acetylcholine (EC20) calcium flux; read-out: M4 FLIPR EC50

EC50 [nM]	SMILES
90	Cc1c2c(c3ccnn3c1C)CN(C(=O)CC1CN(c3ccnc(OCC(F)F)c3)C1)C2 [Example 203]
94.3	Cc1c2c(c3ccnn3c1C)CN(C(=O)CC1CN(c3ccnc(OC4CC4)c3)C1)C2 [Example 221]
90.4	Cc1c2c(c3ccnn3c1C)CN(C(=O)CC1CN(c3ccc4nc(C(F)(F)F)cn4n3)C1)C2 [Example 227]
16.3	Cc1nc2c3c(c(C)c(C)n2n1)CN(C(=O)CC1CN(c2ccnc(OC4CC4)c2)C1)C3 [Example 230]
36.4	Cc1nc2c3c(c(C)c(C)n2n1)CN(C(=O)[C@@H]1CCN(c2ccncn2)C1)C3 [Example 232]
96.3	[2H]C([2H])([2H])Oc1cc(N2CC(OC(=O)N3Cc4c(C)c(C)n5ncnc5c4C3)C2)ccn1 [Example 247]
99.7	Cc1c2c(n3ncnc3c1Cl)CN(C(=O)CC1CN(c3ccnc(C(F)(F)F)c3)C1)C2 [Example 293, 1-(4-Chloro-5-methyl-7,8-dihydro-6H-[1,2,4]triazolo[5,1-f]pyrrolo[4,3-b]pyridin-7-yl)-2-{1-[2-(trifluoromethyl)pyridin-4-yl]azetidin-3-yl}ethan-1-one]
6.8	Cc1c2c(c3ncnn3c1C)CN(C(=O)CC1CN(c3ccc(OC(F)F)nc3)C1)C2 [Example 305]
11.1	Cc1c2c(c3ncnn3c1C)CN(C(=O)CC1CN(c3ccc4c(cnn4C4CC4)c3)C1)C2 [Example 306]
91.2	CCn1ccc2cc(N3CC(CC(=O)N4Cc5c(C)c(C)n6ncnc6c5C4)C3)ccc21 [Example 310]
15.1	Cc1c2c(c3ncnn3c1C)CN(C(=O)CC1CN(c3ccc(C4CC4)nc3)C1)C2 [Example 312]
10.4	CCc1ccc(N2CC(CC(=O)N3Cc4c(C)c(C)n5ncnc5c4C3)C2)cn1 [Example 313]
11.2	Cc1ccc(N2CC(CC(=O)N3Cc4c(C)c(C)n5ncnc5c4C3)C2)cn1 [Example 318]
34.1	Cc1c2c(c3ncnn3c1C)CN(C(=O)CC1CN(c3ncc(C4CC(F)(F)C4)cn3)C1)C2 [Example 320]

More lines, now with the values behind:

SMILES	EC50 [nM]
Cc1c2c(c3ncnn3c1C)CN(C(=O)CC1CN(c3cc(C(F)(F)F)ncc3Cl)C1)C2 [Example 204]	33
Cc1c2c(c3ccnn3c1C)CN(C(=O)CC1CN(c3ccnc(C(F)F)c3)C1)C2 [Example 208]	42.6
Cc1c2c(c3ncnn3c1C)CN(C(=O)CC1CN(c3ccc4nc(C(F)(F)F)cn4n3)C1)C2 [Example 213]	12.4
Cc1c2c(c3ncnn3c1C)CN(C(=O)CC1CN(c3ccc(C(F)(F)F)cn3)C1)C2 [Example 217]	99.7
COc1cc(N2CC(CC(=O)N3Cc4c(C)c(C)n5nccc5c4C3)C2)c(F)cn1 [Example 220]	53.5
Cc1nc(Cl)c(C)c(N2CC(CC(=O)N3Cc4c(C)c(C)n5ncnc5c4C3)C2)n1 [Example 226]	29.9
CCOc1cc(N2CC(CC(=O)N3Cc4c(C)c(C)n5ncnc5c4C3)C2)ccn1 [Example 235]	35.3
CCOc1cc(N2CC(OC(=O)N3Cc4c(C)c(C)n5ncnc5c4C3)C2)ccn1 [Example 238]	35.1
COc1nccc(N2CC(OC(=O)N3Cc4c(C)c(C)n5ncnc5c4C3)C2)n1 [Example 239]	42.6
COc1ccc(N2CC(CC(=O)N3Cc4c(C)c(C)n5ncnc5c4C3)C2)cn1 [Example 264]	47.8
Cc1c2c(c3ncnn3c1C)CN(C(=O)C1CC(Nc3ccnc(C(F)(F)F)c3)C1)C2 (centres unmarked) [Example 284-P2, (5,6-Dimethyl-7,9-dihydro-8H-pyrrolo[3,4-c][1,2,4]triazolo[1,5-a]pyridin-8-yl)(3-((2-(trifluoromethyl)pyridin-4-yl)amino)cyclobutyl)methanone]	59.7
COc1c(C)c2c(n3ncnc13)CN(C(=O)CC1CN(c3ccnc(C(F)(F)F)c3)C1)C2 [Example 292, 1-(4-Methoxy-5-methyl-7,8-dihydro-6H-[1,2,4]triazolo[5,1-f]pyrrolo[4,3-b]pyridin-7-yl)-2-{1-[2-(trifluoromethyl)pyridin-4-yl]azetidin-3-yl}ethan-1-one]	53.5
Cc1c2c(c3ncnn3c1C)CN(C(=O)C1CC(Nc3ncc(C(F)(F)F)cn3)C1)C2 (centres unmarked) [Example 299, (5,6-Dimethyl-7,9-dihydro-8H-pyrrolo[3,4-c][1,2,4]triazolo[1,5-a]pyridin-8-yl)(3-((5-(trifluoromethyl)pyrimidin-2-yl)amino)cyclobutyl)methanone]	26.8
Cc1c2c(c3ncnn3c1C)CN(C(=O)CC1CN(c3ncc(F)cn3)C1)C2 [Example 300]	35.7
Cc1c2c(c3ncnn3c1C)CN(C(=O)CC1CN(c3cnc4c(c3)CCCO4)C1)C2 [Example 302]	23.2
Cc1c2c(c3ncnn3c1C)CN(C(=O)CC1CN(c3ccc(OC4CC4)nc3)C1)C2 [Example 303]	13.8
